Reference: US10792410B2, “Bioartificial liver” (Mayo Foundation for Medical Education and Research, priority 2009, dated 2020)

Tests used:
TLR4 + (Wild type) mice = experiment: Toxin-induced liver injury in TLR4 + (wild type) mice; assay type: in vivo
Method: (§1) The role of TLR4 in ALF and SIRS was studied. […] A similar protective effect of TLR4 deficiency was also observed when wild-type and TLR4 mutant mice were treated with acetaminophen (APAP) at 500 mg/kg—a dose which is highly toxic with 100% mortality in wild-type mice (Table 2). Systemic inflammation was confirmed in wild-type mice after both APAP and Dgal/LPS by rising blood levels of TNFα and neutrophil infiltration in their lungs at necropsy. In contrast, lung histology and systemic levels of TNFα remained normal in TLR4 deficient mice. […] TLR4 deficient Kupffer cells may also explain the protective effects observed in TLR4 deficient mice after toxin exposure (FIG. 6c). […] Pretreatment with gadolinium chloride reduced the number of Kupffer cells in the liver by 48% (31±6 to 16±4 cells/HPF, p<0.001), and lowered peak ALT levels from 2458±2347 U/mL to 278±196 U/mL.

TLR4 − (Deficient) mice = experiment: Toxin-induced liver injury in TLR4 − (deficient) mice; assay type: in vivo; conditions: n = 10/group
Method: as §1

TLR4 = TLR4 agonist activity of mouse serum, luciferase reporter in HEK293/Luc(+)/TLR4(+) cells; assay type: cell-based; conditions: mouse serum 6 hours after APAP 500 mg/kg vs 0 mg/kg sham controls, p<0.001
Text: FIGS. 7(a)-7(c): (a) TLR4 Signaling Complex is found in many cell types. It can also be stably transfected into reporter cells to measure TLR4 agonist activity in vitro; (b) is a schematic representation of HEK293 cells which have been transfected with TLR4 complex and a luciferase reporter gene to measure TLR4 agonist activity in vitro. The HEK293/Luc(+)/TLR4(+) cells, used to measure TLR4 agonist activity in mouse serum in (c) are used to screen dog serum for TLR4 agonist activity; (c) TLR4 agonist activity was elevated in mouse blood after toxic exposure to APAP (500 vs 0 mg/kg). This in vitro assay is based on a luciferase reporter gene linked to NFκβ in HEK293 cells which responds to TLR4 activation. Only trace background activity was detected in HEK293 cells lacking the TLR4 complex, labeled TLR4(−), confirming specificity of the luciferase activity to TLR4.
Further evidence supporting TLR4 as a signaling molecule in the SIRS response to ALF is illustrated in FIG. 7. FIGS. 7a-b show the assay, as well as the TLR4 receptor complex, used in the study.
TLR4 agonist activity are measured by an in vitro assay using HEK293/Luc(+)/TLR4(+) cells (see, e.g., Akira S, Takeda K. Toll-like receptor signaling. Nat Rev Immunol 2004; 4:499-511). […] Luciferase reporter gene signal are quantified by TD-20/20 luminometer (Turner Designs, Sunnyvale, Calif.). […]

[1] = wild type mice, 6 hr, n = 10/group

## CC(=O)Nc1ccc(O)cc1 [APAP, acetaminophen]
TLR4 + (Wild type) mice; wild type mice, 18 hr, APAP 500 mg/kg, n = 10/group
  ALT, TLR4 +: 9054 ± 4793 U/mL
TLR4 + (Wild type) mice; wild-type mice, 500 mg/kg
  mortality: 100%
TLR4 − (Deficient) mice; 18 hr, APAP 500 mg/kg
  ALT, TLR4 −: 4810 ± 4045 U/mL
TLR4
  TLR4 agonist activity in serum: high levels of TLR4 agonist activity

## N[C@H]1C(O)O[C@H](CO)[C@H](O)[C@@H]1O (stereo partly drawn) [DGal alone, D-galactosamine]
TLR4 + (Wild type) mice; [1]
  ALT, TLR4 +: 43 ± 9 U/mL
  TUNEL, TLR4 +: <1 +cells/HPF
TLR4 − (Deficient) mice; 6 hr
  ALT, TLR4 −: 54 ± 18 U/mL
  TUNEL, TLR4 −: <1 +cells/HPF

## [Cl][Gd]([Cl])[Cl] [gadolinium chloride]
TLR4 + (Wild type) mice; after pretreatment, 31±6 without
  number of Kupffer cells in the liver: 16±4 cells/HPF
TLR4 + (Wild type) mice; pretreatment of wild-type mice, p<0.001
  reduction of the number of Kupffer cells in the liver: 48%
TLR4 + (Wild type) mice; [1]
  ALT, TLR4 +: 278±196 U/mL
